Key:
A20 mRNA = assay: Splicing of A20: mature/immature transcripts, RT-qPCR; type: cell-based, human; conditions: following TNFα induction, 50 μM
Experimental: Bars represent the mean of at least 3±SEM independent experiments. The asterisks denote statistical significance differences relative to DMSO+TNFα control according to Student's t tests (typically one tailed, paired): *p<0.05; **p<0.01; ***p<0.005; ****p<0.001. […] Shown are mRNA levels of A20 (normalized to GAPDH) in Hela cells treated with SPI-21 and TNFα and incubated with actinomycin D for the indicated time points, as determined by real-time qPCR. The data points present the mean of 3±SEM independent experiments. […] Shown are levels of mature and immature transcripts in cells incubated for 1 hour with DMSO (vehicle control) or 50 μM of SPI-21 or SPI-18 followed by treatment with TNFα for an additional one hour, as determined by real-time qPCR using primers spanning exons 3 and 4 (mature, black arrows shown in the scheme of G, SEQ ID NOs: 47 and 48) or intron 1 and exon 2 (immature, red arrows shown in the scheme of G, SEQ ID NOs: 49 and 50). […] DMSO (vehicle control), SPI-21 or SPI-18 treated cells were induced by TNFα for the indicated times and the levels of IκBα and β-Tubulin proteins were analyzed by western blot as indicated. […] The occupancy of the A20 gene was analyzed by qPCR using primers from the first (A, SEQ ID NOs: 55 and 56), third (B, SEQ ID NOs: 57 and 58) and last (C, SEQ ID NOs: 59 and 60) exon-intron junctions. […]

His-Spt5 (fused to Spt4) = biological target: T1, His-Spt5 (fused to Spt4) (Homo sapiens, UniProt O00267); assay: Binding assay by intrinsic fluorescence of purified His-Spt5 (fused to Spt4)
T1 construct: His-Rpb1 and His-Spt5 (fused to Spt4 to increase its stability) were each expressed in E. coli; Spt4 (fusion partner); His tag (N); made in house; host or cells: E. coli; purified on nickel agarose beads
Experimental: Binding assay—In order to measure binding of the indicated compound to Spt5 and/or Pol II; Spt5-Spt4 or Rpb1 fused to a histidine (His) tag were expressed in E. coli (SEQ ID Nos: 2-3, 5-6 and 81) and purified on nickel agarose beads as described in Ashkenazi et al. 2016. The proteins were incubated for 10 minutes with increasing concentrations of the indicated compound in a black 384 wells microplate in a total volume of 20 μl. Binding was assessed by measuring the changes in the intrinsic fluorescence (280 nm) using Cytation™ 5 (BioTek).
Two identified compounds, SPI-21 and SPI-18, were further validated for their direct interaction with either Spt5 or Rpb1 CC domain. […] Using the purified proteins, fluorescence intensity measurements were performed in the presence of increasing concentrations of SPI-21 or SPI-18. This method analyzes binding by monitoring the changes in the intrinsic fluorescence of the proteins as a consequence of conformational changes. […]
Direct interaction with either the Spt5 or the Rpb1 CC domain of SPI-21 and SPI-18 was further validated. […] Using the purified proteins, fluorescence intensity measurements were performed in the presence of increasing concentrations of SPI-21 and SPI-18. This method analyzes binding by monitoring the changes in the intrinsic fluorescence of the proteins as a consequence of conformational changes. […]

Structure (SMILES): COc1ccc(C=CC(=O)c2cc(O)ccc2O)cc1 [SPI-21]
- mature/immature A20 mRNA ratio (A20 mRNA): clear decrease in mature/immature ratio
- effect on intrinsic fluorescence of Spt5 (His-Spt5 (fused to Spt4)): no significant effect

Structure (SMILES): Nc1ccccc1SC(CC(=O)c1cccs1)c1cccs1 (stereo not shown) [SPI-18]
- mature/immature A20 mRNA ratio (A20 mRNA): clear decrease in mature/immature ratio
- IC50 (His-Spt5 (fused to Spt4)): 40 µM

Source: patent publication US12661353B2, “SPT5 inhibitors and uses thereof” (Yeda Research and Development Co. Ltd., priority 2020, dated 2026)
